# Target: FKBP12 (Homo sapiens, UniProt P62942)
# Assay: rotamase inhibition assay (N-succinyl-Ala-Ala-Pro-Phe-p-nitroanilide, chymotrypsin-coupled)
# Format: biochemical
# Conditions: Rotamase Ki(app)
# Method: In the rotamase inhibition assay, isomerization of an artificial substrate N-succinyl-Ala-Ala-Pro-Phe-p-nitroanilide is followed spectrophotometrically. The assay includes the cis form of the substrate, FKBP12, the compound being tested, and chymotrypsin. Chymotrypsin is able to cleave p-nitroaniline from the trans form of the substrate, but not from the cis form. Release of p-nitroaniline is measured spectrophotometrically. Using this assay, various amounts of the FKBP rotamase-inhibiting compounds of formula (I-a) or (I-b) were added to cis-N-succinyl-alanine-alanine-proline-phenylalanine-para-nitroaniline (Bachem, 3132 Kashiwa Street, Torrance, Calif. 90505) in the presence of FKBP12 and chymotrypsin. Spectrophotometric measurements of p-nitroaniline concentrations allowed estimation of the apparent Ki values, which are provided in Table 1 below.
# Chain of FKBP12 (P62942 whole entry, species assumed): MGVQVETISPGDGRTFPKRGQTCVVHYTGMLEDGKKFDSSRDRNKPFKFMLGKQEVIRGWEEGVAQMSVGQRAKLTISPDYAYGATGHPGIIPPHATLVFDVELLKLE
row,SMILES,Ki [nM]
1,COc1cc(OC)cc(N2C=C3C4CCCC(C(=O)N3CC2=O)N4C(=O)C(=O)c2cc(OC)c(OC)c(OC)c2)c1 (stereo not drawn) [Compound 142],54

# Same assay, conditions: apparent Ki; NI = no inhibition at the concentrations tested; read-out: Rotamase Ki(app)
row,SMILES,Ki [nM]
1,COCOC1(C(=O)C(=O)N2C3CCCC2C2=CN(C4CCCC4)C(=O)CN2C3=O)CCCC1 (stereo not drawn) [Compound 135],1400
2,COc1cc(OC)cc(N2C=C3C4CCCC(C(=O)N3CC2=O)N4C(=O)C(=O)C(C)(C)c2ccccc2)c1 (stereo not drawn) [Compound 155],1200
3,C=CCC(CC=C)C(=O)OC[C@H](CN1CC2CCCC(C1=O)N2C(=O)C(=O)C(C)(C)CC)OCc1ccccc1 (stereo partly drawn) [Compound 70],890
4,CCOC1C2CCCC(C(=O)N1Cc1ccc(OC)cc1)N2C(=O)C(=O)c1cc(OC)c(OC)c(OC)c1 (stereo not drawn) [Compound 79],700
5,CC(C)[C@@H]1CC[C@@H](C)[C@](C)(C(=O)C(=O)N2C3CCCC2C(=O)N(CCOCc2ccccc2)C3)C1 (stereo partly drawn) [Compound 54],6000
6,CCC(C)(C)C(=O)C(=O)N1C2CCCC1C(=O)N([C@H]1CCC[C@@H]1OCc1ccccc1)C2 (stereo partly drawn) [Compound 78],4100
7,C=CCC(CC=C)C(=O)OC[C@H](CN1CC2CCCC(C1=O)N2C(=O)C(=O)C1(COC(=O)COC)CCCC1)OCc1ccccc1 (stereo partly drawn) [Compound 110],86
8,CC(=O)OCC(C)(C)C(=O)C(=O)N1C2CCCC1C(=O)N(CCCCc1ccccc1)C2 (stereo not drawn) [Compound 60],3000
9,COc1cc(C(=O)C(=O)N2C3CCCC2C(=O)N(C(COCc2ccccc2)COC(C)=O)C3)cc(OC)c1OC (stereo not drawn) [Compound 53],5000
10,COc1cc(C(=O)C(=O)N2C3CCCC2C(=O)N(CCCCc2ccccc2)C3)cc(OC)c1OC (stereo not drawn) [Compound 33],227
11,COc1cc(C(=O)C(=O)N2C3CCCC2C(=O)N(C(CO)COCc2ccccc2)C3)cc(OC)c1OC (stereo not drawn) [Compound 51],4000
12,COCCOC1(C(=O)C(=O)N2C3CCCC2C(=O)N(CCCCc2ccccc2)C3)CCCC1 (stereo not drawn) [Compound 98],772
13,COc1cc(C(=O)C(=O)N2C3CCCC2C(=O)N([C@H]2CCC[C@@H]2OCc2ccccc2)C3)cc(OC)c1OC (stereo partly drawn) [Compound 71],4700
14,CCC(C)(C)C(=O)C(=O)N1C2CCCC1C1c3cccc(OC)c3CCN1C2=O (stereo not drawn) [Compound 87],5000
15,COc1cc(C(=O)C(=O)N2C3CCCC2C(=O)N([C@H]2CCC[C@@H]2OCc2ccccc2)C3)cc(OC)c1OC (stereo partly drawn) [Compound 72],240
16,CO[C@@H](C)[C@@H]1CC[C@@H](C)[C@](O)(C(=O)C(=O)N2C3CCCC2C(=O)N(CCCCc2ccccc2)C3)C1 (stereo partly drawn) [Compound 99],3700
17,O=C1C2CCCC(CN1CCCCc1ccccc1)N2C(=O)C(=O)C1(O)CCCC1 (stereo not drawn) [Compound 95],1200
18,CCC(CC)(COC(=O)COC)C(=O)C(=O)N1C2CCCC1C(=O)N(CCCCc1ccccc1)C2 (stereo not drawn) [Compound 81],1100
19,CCC(C)(C)C(=O)C(=O)N1C2CCCC1[C@@H]1OCCN1C2=O (stereo partly drawn) [Compound 97],9000
20,COc1cc(C(=O)C(=O)N2C3CCCC2C(=O)N(CCOCc2ccccc2)C3)cc(OC)c1OC (stereo not drawn) [Compound 7],160
21,COC1(C(=O)C(=O)N2[C@@H]3CCC[C@H]2C(=O)N2Cc4c(cc(C(F)(F)F)cc4C(F)(F)F)C[C@@H]32)CCCC1 [Compound 137],9700
22,C=CCC(CC=C)C(=O)OC[C@@H]1CC[C@H](N2CC3CCCC(C2=O)N3C(=O)C(=O)c2cc(OC)c(OC)c(OC)c2)C1 (stereo partly drawn) [Compound 154],244
23,CCC(C)(C)C(=O)C(=O)N1C2CCCC1C(=O)N(C[C@@H](CO)OCc1ccccc1)C2 (stereo partly drawn) [Compound 59],3800
24,CCC(CC)C(=O)C(=O)N1C2CCCC1C(=O)N(CCCCc1ccccc1)C2 (stereo not drawn) [Compound 68],2500
25,CCCC(CCC)C(=O)OC[C@@H](CN1CC2CCCC(C1=O)N2C(=O)C(=O)c1cc(OC)c(OC)c(OC)c1)OCc1ccccc1 (stereo partly drawn) [Compound 46],448

row,SMILES,Ki [nM]
1,C=CCC(CC=C)C(=O)OC[C@@H](CN1CC2CCCC(C1=O)N2C(=O)C(=O)C(C)(C)CC)OCc1ccccc1 (stereo partly drawn) [Compound 75],790
2,COc1cc(C(=O)C(=O)N2C3CCCC2C(=O)N(C2CCCC2)C3=O)cc(OC)c1OC [Compound 41],5800
3,C=CCC(CC=C)C(=O)OC[C@@H](CN1CC2CCCC(C1=O)N2C(=O)C(=O)C1(COC(C)=O)CCCC1)OCc1ccccc1 (stereo partly drawn) [Compound 109],49
4,CCC(C)(C)C(=O)C(=O)N1C2CCCC1C(=O)N(C1CCCC1)C2 (stereo not drawn) [Compound 69],33000
5,COc1cc(C(=O)C(=O)N2C3CCCC2C(OC)N(CCCCc2ccccc2)C3=O)cc(OC)c1OC (stereo not drawn) [Compound 37],222
6,COCC(=O)OC1(C(=O)C(=O)N2C3CCCC2C(=O)N(CCCCc2ccccc2)C3)CCCC1 (stereo not drawn) [Compound 101],1400
7,COc1cc(C(=O)C(=O)N2C3CCCC2C(=O)N(C2CCCCC2)C3)cc(OC)c1OC (stereo not drawn) [Compound 44],3000
8,CCC(=O)OC1(C(=O)C(=O)N2C3CCCC2C2=CN(C4CCCC4)C(=O)CN2C3=O)CCCC1 (stereo not drawn) [Compound 144],1200
9,COCC(=O)OC1(C(=O)C(=O)N2C3CCCC2C2=CN(C4CCCC4)C(=O)CN2C3=O)CCCC1 (stereo not drawn) [Compound 145],1700
10,CCC(C)(C)C(=O)C(=O)N1C2CCCC1C(=O)N(C[C@H](CO)OCc1ccccc1)C2 (stereo partly drawn) [Compound 58],3000
11,CC(=O)OCC1(C(=O)C(=O)N2C3CCCC2C2=CN(CC4CC4)C(=O)CN2C3=O)CCCC1 (stereo not drawn) [Compound 124],380
12,COCOC1(C(=O)C(=O)N2C3CCCC2C(=O)N(CCCCc2ccccc2)C3)CCCC1 (stereo not drawn) [Compound 112],1000
13,"COc1cc(C(=O)C(=O)N2C3CCCC2C(=O)N(CCc2ccccc2)CC3)cc(OC)c1OC (stereo not drawn) [Compound 159, 1-(2-Oxo-3-phenethyl-3,10-diaza-bicyclo[4.3.1]dec-10-yl)-2-(3,4,5-trimethoxy-phenyl)-ethane-1,2-dione]",760
14,COc1cc(C(=O)C(=O)N2C3CCCC2C2OCCN2C3=O)cc(OC)c1OC (stereo not drawn) [Compound 96],1400
15,C=CCC(CC=C)C(=O)OC[C@@H](CN1CC2CCCC(C1=O)N2C(=O)C(=O)c1cc(OC)c(OC)c(OC)c1)OCc1ccccc1 (stereo partly drawn) [Compound 76],112
16,COC[C@@H]1CC[C@@H](C)[C@](O)(C(=O)C(=O)N2C3CCCC2C2=CN(C4CCCC4)C(=O)CN2C3=O)C1 (stereo partly drawn) [Compound 140],10000
17,COCOC1(C(=O)C(=O)N2C3CCC[C@@H]2[C@@H]2Cc4cc(OC(F)(F)F)ccc4CN2C3=O)CCCC1 [Compound 141],4000
18,CC(C)C(=O)OC1(C(=O)C(=O)N2C3CCCC2C2=CN(C4CCCC4)C(=O)CN2C3=O)CCCC1 (stereo not drawn) [Compound 150],1500
19,O=C1C2CCCC(CN1CCOCc1ccccc1)N2C(=O)C(=O)C12CC3CC(CC(C3)C1)C2 (stereo not drawn) [Compound 40],690
20,C=CCC(CC=C)C(=O)OC[C@H](CN1CC2CCCC(C1=O)N2C(=O)C(=O)c1cc(OC)c(OC)c(OC)c1)OCc1ccccc1 (stereo partly drawn) [Compound 73],63
21,COCC(=O)OCC1(C(=O)C(=O)N2C3CCCC2C(=O)N(CCCCc2ccccc2)C3)CCCC1 (stereo not drawn) [Compound 84],134
22,CCC(C)(C)C(=O)C(=O)N1C2CCCC1C(=O)N(CCCCc1ccccc1)C2=O [Compound 36],445
23,COc1cc(C(=O)C(=O)N2C3CCCC2C(=O)N(CCCCCc2ccccc2)C3=O)cc(OC)c1OC [Compound 38],298
24,COc1cc(C(=O)C(=O)N2C3CCCC2C(=O)N(Cc2ccccc2)C3=O)cc(OC)c1OC [Compound 34],206
25,COC1(C(=O)C(=O)N2C3CCCC2C2=CN(C4CCCC4)C(=O)CN2C3=O)CCCC1 (stereo not drawn) [Compound 116],960
